US20250215029A1 (Recludix Pharma, Inc., priority 2022, published 2025)
Like-named read-outs stand apart in the source and are kept apart here.

Legend:
[1] = target: T1, Recombinant STAT6 protein (STAT6 (W123-T658)) (Homo sapiens, UniProt P42226); test: STAT6 Fluorescence Polarization (FP) Assay; assay type: binding; details: 45-minute incubation
T1 construct: Recombinant STAT6 protein (STAT6 (W123-T658))
T1 sequence (P42226 123-658): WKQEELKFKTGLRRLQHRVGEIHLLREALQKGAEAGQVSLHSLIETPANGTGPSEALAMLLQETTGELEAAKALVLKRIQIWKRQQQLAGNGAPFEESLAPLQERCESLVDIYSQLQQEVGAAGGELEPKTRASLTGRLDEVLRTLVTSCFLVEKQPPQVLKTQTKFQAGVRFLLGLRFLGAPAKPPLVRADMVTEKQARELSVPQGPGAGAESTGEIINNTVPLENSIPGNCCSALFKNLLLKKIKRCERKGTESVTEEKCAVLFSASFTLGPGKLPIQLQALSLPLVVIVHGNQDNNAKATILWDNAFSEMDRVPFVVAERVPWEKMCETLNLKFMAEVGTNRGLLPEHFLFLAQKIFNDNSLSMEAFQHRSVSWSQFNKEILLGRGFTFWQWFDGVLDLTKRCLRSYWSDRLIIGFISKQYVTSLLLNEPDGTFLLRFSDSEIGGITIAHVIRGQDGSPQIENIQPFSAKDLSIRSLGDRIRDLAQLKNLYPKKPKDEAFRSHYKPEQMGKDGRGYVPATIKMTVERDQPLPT
In short: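 Competitive FP binding: recombinant STAT6 (W123-T658) at 250 nM, labeled phosphotyrosine peptide at 2 nM, compounds at 1% DMSO, 45 min at RT before reading. IC50 values were obtained from nonlinear regression of mP versus log concentration.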

[2] = target: T2, Recombinant STAT3 protein (STAT3 (G127-I722)) (Homo sapiens, UniProt P40763); test: STAT3 Fluorescence Polarization (FP) Assay; assay type: binding; details: probe 5-FAM-GpYLPQTV-NH2 2 nM, 45-minute incubation
T2 construct: Recombinant STAT3 protein (STAT3 (G127-I722))
T2 sequence (P40763 127-722): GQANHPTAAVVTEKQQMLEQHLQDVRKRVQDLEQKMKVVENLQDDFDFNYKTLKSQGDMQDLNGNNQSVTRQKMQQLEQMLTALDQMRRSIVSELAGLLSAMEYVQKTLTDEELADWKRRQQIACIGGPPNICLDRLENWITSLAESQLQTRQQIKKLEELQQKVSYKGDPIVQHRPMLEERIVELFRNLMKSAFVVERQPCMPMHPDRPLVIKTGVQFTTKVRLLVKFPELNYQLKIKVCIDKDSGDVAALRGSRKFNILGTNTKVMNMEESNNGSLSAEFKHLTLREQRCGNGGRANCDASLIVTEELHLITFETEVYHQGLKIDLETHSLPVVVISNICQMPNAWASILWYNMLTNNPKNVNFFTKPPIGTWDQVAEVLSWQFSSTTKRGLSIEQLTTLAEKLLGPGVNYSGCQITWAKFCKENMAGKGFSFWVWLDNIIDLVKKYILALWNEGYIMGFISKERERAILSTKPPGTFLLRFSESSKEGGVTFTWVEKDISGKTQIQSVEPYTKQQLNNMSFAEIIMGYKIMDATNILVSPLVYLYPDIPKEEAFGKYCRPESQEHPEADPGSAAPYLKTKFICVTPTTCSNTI
In short: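 Compounds in serial dilution receive a premix of STAT3 (G127-I722, 25 nM) and fluorescent phosphotyrosine peptide 5-FAM-GpYLPQTV-NH2 (2 nM) at pH 7.4. After 45 min at room temperature, FP is measured and IC50 derived by nonlinear regression.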

[3] = STAT3 (G127-I722) 25 nM, read-out: STAT3 (FP assay IC50 class)
[4] = STAT6 250 nM, probe 5-FAM-Ap[…]-NH2 2 nM, read-out: STAT6 (FP assay IC50)
[5] = STAT3 25 nM, read-out: STAT3 (FP assay IC50)
[6] = STAT6 (W123-T658) 250 nM, probe 5-FAM-Ap[…]-NH2 2 nM, read-out: STAT6 (FP assay IC50 class)

| Structure (SMILES) | IC50 [2, 3] | IC50 [1, 4] | IC50 [2, 5] | IC50 [1, 6] | IC50 ([1]; STAT6 (W123-T658) 250 nM, probe 5-FAM-ApYKPFQDLI-NH2 2 nM, read-out: STAT6 (FP assay IC50 class)) |
| --- | --- | --- | --- | --- | --- |
| C[C@@H]1[C@@H](c2cccnc2)CN1C(=O)[C@@H]1CC[C@@H]2CCC[C@H](NC(=O)c3cc4cc(C(F)P(=O)(O)O)ccc4s3)C(=O)N21 (stereo partly drawn) [Compound 737, (fluoro(2-(((3S,6S,9aS)-3-((2R,3S)-2-methyl-3-(pyridin-3-yl)azetidine-1-carbonyl)-5-oxooctahydro-1H-pyrrolo[1,2-a]azepin-6-yl)carbamoyl)benzo [b]thiophen-5-yl)methyl) phosphonic acid Or (fluoro(2-(((3S,6S,9aS)-3-((2S,3R)-2-methyl-3-(pyridin-3-yl)azetidine-1-carbonyl)-5-oxooctahydro-1H-pyrrolo[1,2-a]azepin-6-yl)carbamoyl)benzo [b]thiophen-5-yl)methyl) phosphonic acid] | < 100 nM | – | – | – | 3000 to 30000 nM |
| N#CCC1CN(C(=O)[C@@H]2CC[C@@H]3CCC[C@H](NC(=O)c4cc5cc(C(F)(F)P(=O)(O)O)ccc5s4)C(=O)N32)C1 [Compound 50, ((2-(((3S,6S,9aS)-3-(3-(cyanomethyl)azetidine-1-carbonyl)-5-oxooctahydro-1H-pyrrolo[1,2-a]azepin-6-yl)carbamoyl)benzo[b]thiophen-5-yl)difluoromethyl) phosphonic acid] | – | 300 to 3000 nM | 100 to 1000 nM | – | – |
| O=C(N[C@H]1CCC[C@H]2CC[C@@H](C(=O)N3CCC(c4cc[nH]n4)CC3)N2C1=O)c1cc2cc(C(F)P(=O)(O)O)ccc2s1 (stereo partly drawn) [Compound 760, ((2-(((3S,6S,9aS)-3-(4-(1H-pyrazol-3-yl)piperidine-1-carbonyl)-5-oxooctahydro-1H-pyrrolo[1,2-a]azepin-6-yl)carbamoyl)benzo [b]thiophen-5-yl)fluoromethyl) phosphonic acid] | 1000 to 10000 nM | – | – | 3000 to 30000 nM | – |
| O=C(N[C@H]1CCCC[C@H]2CC[C@@H](C(=O)N3CC(c4cccnc4)CC34CC4)N2C1=O)c1ccc2ccc(C(F)P(=O)(O)O)cc2c1 (stereo partly drawn) [Compound 891, (fluoro(7-(((3S,6S,10aS)-5-oxo-3-(6-(pyridin-3-yl)-4-azaspiro[2.4]heptane-4-carbonyl)decahydropyrrolo[1,2-a]azocin-6-yl)carbamoyl)naphthalen-2-yl)methyl) phosphonic acid] | 1000 to 10000 nM | – | – | ≤ 300 nM | – |
| N#C[C@@H]1CN(C(=O)[C@@H]2CC[C@@H]3CCCC[C@H](NC(=O)c4cc5cc(C(F)(F)P(=O)(O)O)ccc5s4)C(=O)N32)C[C@H]1c1cc[nH]c(=O)c1 (relative stereo) [Compound 86, ((2-(((3S,6S,10aS)-3-(rel-(trans)-3-cyano-4-(2-oxo-1,2-dihydropyridin-4-yl)pyrrolidine-1-carbonyl)-5-oxodecahydropyrrolo [1,2-a]azocin-6-yl)carbamoyl)benzo[b]thiophen-5-yl)difluoromethyl) phosphonic acid] | – | ≤ 300 nM | 100 to 1000 nM | – | – |
| CC(NC(=O)[C@@H]1CC[C@@H]2CCCC[C@H](NC(=O)c3cc4cc(C(F)(F)P(=O)(O)O)ccc4s3)C(=O)N21)c1n[nH]c2ncccc12 (stereo partly drawn) [Compound 1107, ((2-(((3S,6S,10aS)-3-((1-(1H-pyrazolo[3,4-b]pyridin-3-yl)ethyl)carbamoyl)-5-oxodecahydropyrrolo[1,2-a]azocin-6-yl)carbamoyl)benzo[b]thiophen-5-yl)difluoromethyl)phosphonic acid] | 100 to 1000 nM | – | – | 300 to 3000 nM | – |
| O=C(N[C@H]1CCC[C@H]2CC[C@@H](C(=O)N3CC(c4ccnc(N5CCOCC5)c4)C3)N2C1=O)c1cc2cc([C@@H](F)P(=O)(O)O)ccc2s1 (single isomer, unassigned) [Compound 712] | 1000 to 10000 nM | – | – | 3000 to 30000 nM | – |

More lines, main results first:

| IC50 [2, 3] | IC50 [1, 4] | IC50 [2, 5] | IC50 [1, 6] | Structure (SMILES) | IC50 ([1]; STAT6 (W123-T658) 250 nM, probe 5-FAM-ApYKPFQDLI-NH2 2 nM, read-out: STAT6 (FP assay IC50 class)) |
| --- | --- | --- | --- | --- | --- |
| 100 to 1000 nM | – | – | 3000 to 30000 nM | O=C(N[C@H]1CCCC[C@H]2CC[C@@H](C(=O)N3CCC(c4cccnc4)CC3)N2C1=O)c1cc2cc(C(F)P(=O)(O)O)ccc2s1 (stereo partly drawn) [Compound 564, (fluoro(2-(((3S,6S,10aS)-5-oxo-3-(4-(pyridin-3-yl)piperidine-1-carbonyl)decahydropyrrolo[1,2-a]azocin-6-yl)carbamoyl)benzo[b]thiophen-5-yl)methyl)phosphonic acid] | – |
| < 100 nM | – | – | 3000 to 30000 nM | CC[C@H]1CC[C@H](NC(=O)c2cc3cc(C(F)P(=O)(O)O)ccc3s2)C(=O)N2[C@H](CC[C@H]2C(=O)N2CC(c3cnccc3OC)C2)C1 (stereo partly drawn) [Compound 245, ((2-(((3S,6S,9S,10aR)-9-ethyl-3-(3-(4-methoxypyridin-3-yl)azetidine-1-carbonyl)-5-oxodecahydropyrrolo[1,2-a]azocin-6-yl)carbamoyl)benzo[b]thiophen-5-yl)fluoromethyl)phosphonic acid] | – |
| 100 to 1000 nM | – | – | 3000 to 30000 nM | C[C@@H]1COCCN1c1ccncc1C1CN(C(=O)[C@@H]2CC[C@@H]3CCC[C@H](NC(=O)c4cc5cc(CP(=O)(O)O)ccc5s4)C(=O)N32)C1 [Compound 860, ((2-(((3S,6S,9aS)-3-(3-(4-((R)-3-methylmorpholino)pyridin-3-yl)azetidine-1-carbonyl)-5-oxooctahydro-1H-pyrrolo[1,2-a]azepin-6-yl)carbamoyl)benzo [b]thiophen-5-yl)methyl) phosphonic acid] | – |
| 100 to 1000 nM | – | – | 3000 to 30000 nM | COC1(CS(C)(=N)=O)CN(C(=O)[C@@H]2CC[C@@H]3CCC[C@H](NC(=O)c4cc5cc(C(F)(F)P(=O)(O)O)ccc5s4)C(=O)N32)C1 (stereo partly drawn) [Compound 822, (difluoro(2-(((3S,6S,9aS)-3-(3-methoxy-3-((S-methylsulfonimidoy 1)methyl)azetidine-1-carbonyl)-5-oxooctahydro-1H-pyrrolo[1,2-a]azepin-6-yl)carbamoyl)benzo [b]thiophen-5-yl)methyl) phosphonic acid] | – |
| < 100 nM | – | – | 3000 to 30000 nM | O=C(N[C@H]1CCCC[C@H]2CC[C@@H](C(=O)N3CC4(CC(=O)c5nccn54)C3)N2C1=O)c1cc2cc(C(F)(F)P(=O)(O)O)ccc2s1 [Compound 774, (difluoro(2-(((3S,6S,10aS)-5-oxo-3-(7′-oxo-6′,7′-dihydrospiro[azetidine-3,5′-pyrrolo[1,2-a]imidazole]-1-carbonyl)decahydropyrrolo[1,2-a]azocin-6-yl)carbamoyl)benzo [b]thiophen-5-yl)methyl) phosphonic acid] | – |
| 100 to 1000 nM | – | – | 3000 to 30000 nM | O=C(N[C@H]1CCC[C@H]2CC[C@@H](C(=O)N3CC(n4cc(F)cn4)C3)N2C1=O)c1cc2cc(C(F)P(=O)(O)O)ccc2s1 (stereo partly drawn) [Compound 614, (fluoro(2-(((3S,6S,9aS)-3-(3-(4-fluoro-1H-pyrazol-1-yl)azetidine-1-carbonyl)-5-oxooctahydro-1H-pyrrolo[1,2-a]azepin-6-yl)carbamoyl)benzo [b]thiophen-5-yl)methyl) phosphonic acid] | – |
| < 100 nM | – | – | 3000 to 30000 nM | O=C(N[C@H]1CCC[C@H]2CC[C@@H](C(=O)N3CC(c4ccnc(O)n4)C3)N2C1=O)c1cc2cc(C(F)P(=O)(O)O)ccc2s1 (stereo partly drawn) [Compound 927, (fluoro(2-(((3S,6S,9aS)-3-(3-(2-hydroxypyrimidin-4-yl)azetidine-1-carbonyl)-5-oxooctahydro-1H-pyrrolo[1,2-a]azepin-6-yl)carbamoyl)benzo [b]thiophen-5-yl)methyl) phosphonic acid] | – |
| 100 to 1000 nM | – | – | 3000 to 30000 nM | O=C(N[C@H]1CCCC[C@H]2CC[C@@H](C(=O)NCc3ccn[nH]3)N2C1=O)c1cc2cc(C(F)(F)P(=O)(O)O)ccc2s1 [Compound 726, ((2-(((3S,6S,10aS)-3-(((212-pyrazol-3-yl)methyl)carbamoyl)-5-oxodecahydropyrrolo [1,2-a]azocin-6-yl)carbamoyl)benzo [b]thiophen-5-yl)difluoromethyl) phosphonic acid] | – |
